Measurements as given in patent publication US11578055B2, “Triazacyclododecansulfonamide (“TCD”)-based protein secretion inhibitors” (KEZAR LIFE SCIENCES, priority 2018, dated 2023).
Read-outs that look alike come from different tables or passages of the source.

Columns and labels:
[1] = system: PD1 signal sequence plus 10 amino acids fused to Gaussia Luciferase (PD1-ss+10aa/Gaussia Luciferase); assay: Dox Induced PD1-ss-Gluc Assay; type: cell-based; details: 24 hr, read-out: 24 hr Dox Inducible PD1ssGluc 293FRT/TO: Mean IC50
Summary of the method: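 Compound dilutions in DMSO/media containing doxycycline were applied to a stable, inducible 293 T-REx line carrying the luciferase fusion, then incubated at 37 °C, 5% CO2. Where stereochemistry is not drawn, values relate to isomer mixtures.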

[2] = system: full length TNFα (amino acids 1-233) fused to Gaussia Luciferase; assay: Dox Induced TNFα-FL-Gluc Assay; type: cell-based; details: 24 hr, read-out: 24 hr Dox Inducible TNFaFLGluc 293FRT/TO: Mean IC50
Summary of the method: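 Compounds diluted in DMSO/medium with doxycycline were incubated at 37° C, 5% CO2 with 293 T-REx cells stably carrying a Tet-regulated TNFα(1-233)-Gaussia luciferase construct. Data for structures drawn without stereochemistry refer to stereoisomer mixtures.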

[3] = system: full length IL-2 (amino acids 1-153) fused to Gaussia Luciferase; assay: Dox Induced IL2-FL-Gluc Assay; type: cell-based; details: 24 hr, read-out: 24 hr Dox Inducible IL2FLGluc 293FRT/TO: Mean IC50
Excerpt: FIp-In 293 T-REx™ cells were transfected with pcDNA™5/FRT/TO plasmid inserted with cDNA encoding Gaussia Luciferase fused to the 3′ end of cDNA encoding full length IL-2 (amino acids 1-153). Transfected cells were selected for resistance to the selectable markers Hygromycin and Blasticidin to create a stable cell line that contained the IL-2-FL/Gaussia Luciferase cDNA insert whose expression was regulated under the T-REx™ system. The day before assay, cells were trypsinized and plated in 384-well tissue culture plates. The next day, compound dilutions in DMSO/media containing doxycycline were added to the wells and incubated at 37° C., 5% CO2.
For chemical structures that include one or more stereoisomers, but are illustrated without indicating stereochemistry, the assay data refers to a mixture of stereoisomers.

[4] = system: multiple myeloma cell line NCl-H929; assay: H929 Cell Viability Assay; type: cell-based, human; details: Homo sapiens, NCI-H929, 48 h
Summary of the method: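 Viability was determined by CellTiter-Glo luminescence after a 48 h, 37 °C exposure of NCI-H929 cells to serial compound dilutions in medium containing 10% FBS. Where stereochemistry is not shown, values refer to a mix of stereoisomers.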

[5] = system: multiple myeloma cell line U266B1; assay: U266 Cell Viability Assay; type: cell-based, human; details: Homo sapiens, U-266, 48 hr
Summary of the method: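 Viability was measured by CellTiter-Glo luminescence after 48 h compound exposure at 37° C, 5% CO2. The cells were U266B1 multiple myeloma cells grown in RPMI 1640 plus 10% FBS. Where stereochemistry is not shown, values apply to the stereoisomer mixture.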

[6] = In Vitro Microsome Stability Assay (human); type: in vitro ADME
Summary of the method: (§1)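 Test article, added from a 0.25 mM DMSO stock, was incubated with liver microsomes (20 mg/mL stock) in 0.1 M potassium phosphate at 37° C, with the reaction started by NADPH. Samples were quenched with acetonitrile containing internal standard at 0 and 30 min and analysed by LC-MS/MS. Values are % remaining at 30 min versus 0 min, using IS-normalised AUC ratios.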

[7] = In Vitro Microsome Stability Assay (mouse); type: in vitro ADME
Summary of the method: as §1

[8] = In Vitro Microsome Stability Assay (rat); type: in vitro ADME
Summary of the method: as §1

[9] = In Vitro Microsome Stability Assay (monkey); type: in vitro ADME
Summary of the method: as §1

[10] = H929, read-out: 48 hr H929 Viability Celltiter-Glo: Mean EC50
[11] = U266, read-out: 48 hr U266 Viability Celltiter-Glo: Mean EC50
[12] = human liver microsomes, 30 min w/ NADPH
[13] = monkey liver microsomes, 30 min w/ NADPH
[14] = mouse liver microsomes, 30 min w/ NADPH
[15] = rat liver microsomes, 30 min w/ NADPH

Row | Structure (SMILES) | IC50 ([1]; 293FRT/TO) [nM] | IC50 ([2]; 293FRT/TO) [nM] | IC50 ([3]; 293FRT/TO) [nM] | EC50 [4, 10] [nM] | EC50 [5, 11] [nM] | Liver Microsome Stability-% Left after 30 min w/ NADPH (%) Human ([6]; human, 30 min, NADPH) [%] | Liver Microsome Stability-% Left after 30 min w/ NADPH (%) Mouse ([7]; mouse, 30 min, NADPH) [%] | Liver Microsome Stability-% Left after 30 min w/ NADPH (%) Rat ([8]; rat, 30 min, NADPH) [%] | Liver Microsome Stability-% Left after 30 min w/ NADPH (%) Monkey ([9]; monkey, 30 min, NADPH) [%] | Liver Microsome Stability-% Left after 30 min w/ NADPH (%) Human [6, 12] [%] | Liver Microsome Stability-% Left after 30 min w/ NADPH (%) Monkey [9, 13] [%] | IC50 ([1]; Dox inducible, 293FRT/TO cells) [nM] | IC50 ([2]; Dox inducible, 293FRT/TO cells) [nM] | IC50 ([3]; Dox inducible, 293FRT/TO cells) [nM] | EC50 ([4]; H929, Celltiter-Glo) [nM] | EC50 ([5]; U266, Celltiter-Glo) [nM] | Liver Microsome Stability-% Left after 30 min w/ NADPH (%) Mouse [7, 14] [%] | Liver Microsome Stability-% Left after 30 min w/ NADPH (%) Rat [8, 15] [%]
1 | Cc1cccc(N2CCN(S(=O)(=O)N3CCCN(CC4CCCCC4)CCCN(S(=O)(=O)c4ccc(N(C)C)cc4)C[C@H](C)C3)CC2)c1 [A98, 4-{[(3S)-9-(cyclohexylmethyl)-3-methyl-5-{[4-(3-methylphenyl)piperazin-1-yl]sulfonyl}-1,5,9-triazacyclododecan-1-yl]sulfonyl}-N,N-dimethylaniline] | 202 | 7340 | 351 | > 25000 | > 25000 | 57.5 | 55.2 | 32.8 | 26.9 |  |  |  |  |  |  |  |  | 
2 | Cc1ccc(N2CCN(S(=O)(=O)N3CCCN(CC4CCCCC4)CCCN(S(=O)(=O)c4ccc(N(C)C)cc4)C[C@H](C)C3)CC2)cc1 [A99, 4-{[(3S)-9-(cyclohexylmethyl)-3-methyl-5-{[4-(4-methylphenyl)piperazin-1-yl]sulfonyl}-1,5,9-triazacyclododecan-1-yl]sulfonyl}-N,N-dimethylaniline] | 116 | 3540 | 350 | > 25000 | > 25000 |  | 60.8 | 50.8 |  | 41.9 | 37 |  |  |  |  |  |  | 
3 | C[C@H]1CN(S(=O)(=O)c2ccc(N(C)C)cc2)CCCN(CC2CCCCC2)CCCN(S(=O)(=O)N2CCN(C(=O)c3ccccc3)CC2)C1 [A100, 4-{[(3S)-5-[(4-benzoylpiperazin-1-yl)sulfonyl]-9-(cyclohexylmethyl)-3-methyl-1,5,9-triazacyclododecan-1-yl]sulfonyl}-N,N-dimethylaniline] |  |  |  |  |  |  |  |  |  | 0.22 | 0.04 | 1150 | > 25000 | 1560 | > 25000 | > 25000 | 0.1 | 2.18
4 | C[C@H]1CN(S(=O)(=O)c2ccc(N(C)C)cc2)CCCN(CC2CCCCC2)CCCN(S(=O)(=O)N2CC(c3ccccc3)C2)C1 [A101, 4-{[(3S)-9-(cyclohexylmethyl)-3-methyl-5-[(3-phenylazetidin-1-yl)sulfonyl]-1,5,9-triazacyclododecan-1-yl]sulfonyl}-N,N-dimethylaniline] |  |  |  |  |  |  |  |  |  | 30.2 | 18.8 | 220 | 3430 | 564 | > 25000 | > 25000 | 20.8 | 25.4
5 | Cc1cc(F)ccc1N1CCN(S(=O)(=O)N2CCCN(CC3CCCCC3)CCCN(S(=O)(=O)c3ccc(N(C)C)cc3)C[C@H](C)C2)CC1 [A102, 4-{[(3S)-9-(cyclohexylmethyl)-5-{[4-(4-fluoro-2-methylphenyl)piperazin-1-yl]sulfonyl}-3-methyl-1,5,9-triazacyclododecan-1-yl]sulfonyl}-N,N-dimethylaniline] |  |  |  |  |  |  |  |  |  | 62.3 | 70 | 33.4 | 477 | 90.5 | 558 | > 25000 | 86.6 | 101.9
6 | C[C@H]1CN(S(=O)(=O)c2ccc(N(C)C)cc2)CCCN(C(=O)OCc2ccccc2)CCCN(S(=O)(=O)N2CCc3cc(Cl)ccc3C2)C1 [A103] |  |  |  |  |  |  |  |  |  | 31.6 | 38.5 | 446 | > 25000 | 698 | > 25000 | > 25000 | 42.2 | 36.5
7 | CCC(C)CN1CCCN(S(=O)(=O)c2ccc(N(C)C)cc2)C[C@H](C)CN(S(=O)(=O)N2CCc3cc(Cl)ccc3C2)CCC1 (stereo partly drawn) [A106, 4-{[(3S)-5-[(6-chloro-1,2,3,4-tetrahydroisoquinolin-2-yl)sulfonyl]-3-methyl-9-(2-methylbutyl)-1,5,9-triazacyclododecan-1-yl]sulfonyl}-N,N-dimethylaniline] |  |  |  |  |  |  |  |  |  | 7.18 | 30.7 | 52.4 | 1120 | 126 | 903 | > 25000 | 8.81 | 18.9
8 | C[C@H]1CN(S(=O)(=O)c2ccc(N(C)C)cc2)CCCN(CC2CCC2)CCCN(S(=O)(=O)N2CCc3cc(Cl)ccc3C2)C1 [A108, 4-{[(3S)-5-[(6-chloro-1,2,3,4-tetrahydroisoquinolin-2-yl)sulfonyl]-9-(cyclobutylmethyl)-3-methyl-1,5,9-triazacyclododecan-1-yl]sulfonyl}-N,N-dimethylaniline] |  |  |  |  |  |  |  |  |  | 1.06 | 0.88 | 29.6 | 546 | 68.3 | 421 | > 25000 | 0.62 | 2.05
9 | C[C@H]1CN(S(=O)(=O)c2ccc(N(C)C)cc2)CCCN(CC2CCCCC2)CCCN(S(=O)(=O)N2CCN(c3ccccc3C#N)CC2)C1 [A118, 2-(4-{[(3S)-9-(cyclohexylmethyl)-5-[4-(dimethylamino)benzenesulfonyl]-3-methyl-1,5,9-triazacyclododecan-1-yl]sulfonyl}piperazin-1-yl)benzonitrile] |  |  |  |  |  |  |  |  |  | 14.2 | 14.7 | 67.8 | 2090 | 173 | 5350 | > 25000 | 22.1 | 18.3
